Source: US20240398775A1, “PHARMACEUTICAL COMPOSITION FOR USE IN TREATING COGNITIVE DECLINE OR FOR USE IN TREATING OVERWEIGHT OR OBESITY” (University of the Ryukyus, priority 2021, published 2024)

Legend:
NMDA receptor (NMDAR) = assay: Ca2+ imaging (Fluo-3) of hippocampal brain slices, NMDA + glycine application (NMDA reaction); type: cell-based, mouse
[1] = Body weight monitoring of obese mice; type: in vivo, mouse
Protocol: Male C57BL/6J background and ob/ob mice were obtained from CLEA Japan Inc. and Japan SLC, respectively (3). The reason why male mice were selected is that it has been reported that male mice are susceptible to HFD, such as weight gain, metabolic changes, and disorder of learning and hippocampal synaptic plasticity. These animals were housed 3 to 4 per cage in a standard 12 hour dark-light cycle room at 25° C. in an environment with freely available food and water. All animal experiments were performed in accordance with the guidelines of the Animal Experiment Ethics Committee of the University of the Ryukyus. Time series changes in average food intake and average body weight were monitored in each condition.
HFD mice were orally administered with HydroGel (Clear HO, Portland, ME 04101, USA) at a dose of 5 mg/kg body weight (HFD treated group with PER). For ob/ob mice, CE-2 feed (CLEA Japan, Inc., Tokyo) was used. HFD mice and ob/ob mice were orally administered one per cage with PER at a dose of 5 mg/kg body weight (HFD mice and ob/ob mice PER-administered group), and body weight and HydroGel intake were monitored twice a week for both groups to adjust the dose of PER to 5 mg/kg body weight.
Post-weaning (6 weeks) food intake and body weight of mice maintained on control diet (CD), high-fat diet (HFD), or HFD containing PER (Fycompa (trademark), Eisai, Japan) (5 mg/kg/day) was monitored up to 18 w (FIGS. 2, E and F). […] To determine the effect of HFD on cognitive behaviors, the open field test (FIG. 9, AC), elevated plus maze test (FIG. 9, DE), the contextual fear conditioning test (FIG. 9, F), the novel object recognition test (FIG. 2G), and a five-trial social interaction test (FIG. 2H) were performed. […]
Mice were then split into an HFD-fed group (n=5) and a PER-containing HFD-fed group (n=5) under the condition of the same feeding amount (refer to lower Panel of FIG. 25) and their body weights monitored.

MAP2, GluA1, GluA2, DCX = assay: Immunohistochemical analysis (MAP2, GluA1, GluA2, DCX) of hippocampus; type: in vivo, mouse
Text: Mouse brains were perfusion-fixed with 4% paraformaldehyde, embedded in paraffin, and cut into 4 micrometer thick sections to be used for immunohistochemical analysis of monoclonal antibodies against DCX (E-6 monoclonal, 1:50, Santa Cruz Biotechnology Inc, Dallas, USA), MAP2ab (AP-20 monoclonal, 1:100, SIGMA-ALDRICH, St. Louis, USA), GluA1 ([…] polyclonal, 1:100, EMD Millipore Corp., Burlington, USA), and GluA2 (AB 1768-1 polyclonal, 1:5, EMD Millipore Corp., Burlington, USA).
The immunostained region in each of the expression regions of MAP2, GluA1, and GluA2 was acquired using a ZVI format AxioVision (Carl Zeiss, Germany) microscope (objective lens 20×). Generation of data image processing with image segmentation was performed using machine learning with ZEN Intelliesis software. 1000 or more cells were examined in each group. One-way variance analysis was used for testing variance among the three groups excluding data of 3SD or higher. Then, the following number of samples was used.

NL-G-F(−/−) mice = assay: Hippocampus function-dependent fear conditioning test in NL-G-F(−/−) mice; type: in vivo, mouse; settings: perampanel alone 5 mg/kg or 10 mg/kg
Protocol: Contextual fear conditioning was applied with slight modifications to published protocols (50). Mice were transferred to the animal experimental room and allowed to acclimatize for at least 30 minutes prior to contextual fear conditioning training. Next, the mice were placed in a foot shock system model MK-450 MSQ (Muromachi Kikai Co., Ltd., Japan), searching was performed for 2 minutes, and then 3 electric foot shocks (0.8 mA, 2 sec, 2 min interval) were performed. After mice were left in the apparatus for an additional 1 minute, the animals were removed.
NL-G-F(−/−) mice, a dementia model, were administered with memantine (mema), exercise, memantine and exercise, memantine and perampanel, and perampanel alone (5 mg/kg or 10 mg/kg), and subjected to behavioral experiments. As the behavior test, a novel object recognition test and a hippocampus function-dependent fear conditioning test were performed. Memantine is an antagonist of the NMDA receptor, but has distinct properties from other NMDA receptor antagonists (refer to Hokama Y., et al., Neuro Oncology, 2022, noac162). That is, memantine is a drug that works only when glutamic acid is excessively present in the brain.

[2] = HFD-fed mice with oral PER 5 mg/kg/day, NMDA 50 μM + glycine 10 μM, N = 5

N#Cc1ccccc1-c1cc(-c2ccccn2)cn(-c2ccccc2)c1=O [PER, 3-(2-cyanophenyl)-5-(2-pyridyl)-1-phenyl-1,2-dihydropyridine-2-one]
NMDA reaction CA1 (maximum value of NF525) (NMDA receptor (NMDAR); [2]): 1.20 ± 0.08 | NMDA reaction CA2 (maximum value of NF525) (NMDA receptor (NMDAR); [2]): 1.20 ± 0.09 | NMDA reaction CA3 (maximum value of NF525) (NMDA receptor (NMDAR); [2]): 1.12 ± 0.04 | NMDA reaction DG (maximum value of NF525) (NMDA receptor (NMDAR); [2]): 1.17 ± 0.04 | NMDA reaction EC (maximum value of NF525) (NMDA receptor (NMDAR); [2]): 1.16 ± 0.06 | signal transduction via the NMDAR (NMDA receptor (NMDAR); hippocampal slices from mice fed HFD and PER 5 mg/kg/day orally by hydrogel): simultaneously restored | NMDAR function in all hippocampal subregions (NMDA receptor (NMDAR); ob/ob mice, PER administration, p<0.05): restoration of NMDAR function | body weight ([1]; HFD containing PER 5 mg/kg/day from 6 weeks to 18 w, started from 16 w compared to HFD): significant inhibition | body weight under the same feeding amount ([1]; PER-containing HFD-fed group (n=5) vs HFD-fed group (n=5)): significant body weight loss | appearance and body weight ([1]; ob/ob mice, perampanel-containing diet 5 mg/kg body weight from 8 to 12 weeks of age): overweight was prevented | integrity of dendritic arbors in CA1 (anti-MAP2 antibody staining) (MAP2, GluA1, GluA2, DCX; HFD mice with PER): completely restored | GluA2/GluA1 ratio (immunostaining) (MAP2, GluA1, GluA2, DCX; HFD mice with PER treatment): increased | immunostaining reaction of GluA1 in CA1 (MAP2, GluA1, GluA2, DCX; HFD mice with PER treatment): decreased | double cortin positive cells (MAP2, GluA1, GluA2, DCX; HFD mice with PER, DG): increase | GluA1 expression in CA1 (immunoreactive region) (MAP2, GluA1, GluA2, DCX; ob/ob mice with PER): restored | ratio of GluA2/GluA1 (immunoreactive region) (MAP2, GluA1, GluA2, DCX; ob/ob mice with PER): restored | integrity of the dendritic arbors (MAP2 staining) (MAP2, GluA1, GluA2, DCX; ob/ob mice, PER for 1 week or 12 weeks): significantly more restored by 12 week administration than by 1 week administration | maturation of the protrusions of DCX-positive cells (MAP2, GluA1, GluA2, DCX; ob/ob mice, PER for 12 weeks): progressed | cognitive function in hippocampus function-dependent fear conditioning test (NL-G-F(−/−) mice): remarkable improvement in cognitive function
